From PubChem BioAssay AID328 (DTP/NCI, 2004)
Where “and” joins values, the source holds several entries; their conditions need not be identical. Equal entries are not always repeated. Inconclusive results and toxic doses are left out.

System: BDF1 mice, P388 leukemia ip, median survival T/C
Assay: NCI In Vivo Anticancer Drug Screen. Data for tumor model P388 Leukemia (intraperitoneal) in B6D2F1 (BDF1) mice
Settings: endpoint: median survival time, higher = longer survival
Summary of the method: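 T/C = treated-group survival ÷ vehicle-control survival; tumour transplanted into mice before dosing.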

[1] = dose: 50.0 mg/kg/injection, schedule: Q01DX009 (ip), vehicle: saline with Tween-80
[2] = dose: 100.0 mg/kg/injection, schedule: Q01DX009 (ip), vehicle: saline with Tween-80
[3] = dose: 200.0 mg/kg/injection, schedule: Q01DX009 (ip), vehicle: saline with Tween-80
[4] = dose: 50.0 mg/kg/injection, schedule: Q01DX009 (ip), vehicle: saline
[5] = dose: 100.0 mg/kg/injection, schedule: Q01DX009 (ip), vehicle: saline
[6] = dose: 200.0 mg/kg/injection, schedule: Q01DX009 (ip), vehicle: saline
[7] = dose: 25.0 mg/kg/injection, schedule: Q04DX003 (ip), vehicle: saline with Tween-80
[8] = dose: 100.0 mg/kg/injection, schedule: Q04DX003 (ip), vehicle: saline with Tween-80
[9] = dose: 200.0 mg/kg/injection, schedule: Q04DX003 (ip), vehicle: saline with Tween-80
[10] = dose: 400.0 mg/kg/injection, schedule: Q01DX009 (ip), vehicle: saline with Tween-80
[11] = dose: 400.0 mg/kg/injection, schedule: Q04DX003 (ip), vehicle: saline with Tween-80
[12] = dose: 100.0 mg/kg/injection, schedule: Q01DX009 (ip), vehicle: Klucel (hydroxypropylcellulose) (HPC)
[13] = dose: 200.0 mg/kg/injection, schedule: Q01DX009 (ip), vehicle: Klucel (hydroxypropylcellulose) (HPC)
[14] = dose: 400.0 mg/kg/injection, schedule: Q01DX009 (ip), vehicle: Klucel (hydroxypropylcellulose) (HPC)

Cc1c(NS(=O)(=O)c2ccccc2)c(C)c(NS(=O)(=O)c2ccccc2)c(C)c1NS(=O)(=O)c1ccccc1
T/C [1]: 88 % of control
T/C [2]: 91 % of control
T/C [3]: 88 % of control

O=C(O)CCNCc1ccccc1
T/C (dose: 25.0 mg/kg/injection, schedule: Q01DX009 (ip), vehicle: saline): 93 % of control
T/C [4]: 108 % of control
T/C [5]: 117 % of control
T/C [6]: 88 % of control

C/C(CC(c1ccccc1)N1CCc2ccccc2C1)=N/O (stereo not given)
T/C (dose: 100.0 mg/kg/injection, schedule: Q04DX003 (ip), vehicle: saline sonified): 104 % of control
T/C (dose: 200.0 mg/kg/injection, schedule: Q04DX003 (ip), vehicle: saline sonified): 109 % of control
T/C (dose: 400.0 mg/kg/injection, schedule: Q04DX003 (ip), vehicle: saline sonified): 90 % of control

CC(=O)CSc1nc2nccnc2[nH]1
T/C (dose: 25.0 mg/kg/injection, schedule: Q01DX009 (ip), vehicle: saline with Tween-80): 111 % of control
T/C [7]: 97 % of control
T/C [1]: 111 % of control
T/C (dose: 50.0 mg/kg/injection, schedule: Q04DX003 (ip), vehicle: saline with Tween-80): 108 % of control
T/C [2]: 106 % of control
T/C [8]: 97 % of control
T/C [3]: 106 % of control
T/C [9]: 105 % of control
T/C [10]: 103 % of control
T/C [11]: 100 % of control

C=C1C[C@H]2[C@@H]3C=C(C)C4=CC(=O)CC[C@]4(C)[C@H]3CC[C@]2(C)[C@@]1(OC(C)=O)C(C)=O
T/C (dose: 62.5 mg/kg/injection, schedule: Q01DX010 (sc), vehicle: steriod suspending solution): 105 % of control
T/C (dose: 125.0 mg/kg/injection, schedule: Q01DX010 (sc), vehicle: steriod suspending solution): 110 % of control
T/C (dose: 250.0 mg/kg/injection, schedule: Q01DX010 (sc), vehicle: steriod suspending solution): 100 % of control
T/C (dose: 500.0 mg/kg/injection, schedule: Q01DX010 (sc), vehicle: steriod suspending solution): 110 % of control

CS(=O)(=O)CC(O)(c1ccccc1)c1cccs1 (stereo not given)
T/C [1]: 99 % of control
T/C [2]: 100 % of control
T/C [3]: 100 % of control

CC1(C)OC(=O)C(=Cc2c(Cl)cccc2Cl)C(=O)O1
T/C (dose: 100.0 mg/kg/injection, schedule: Q01DX001 (ip), vehicle: Klucel (hydroxypropylcellulose) (HPC)): 109 % of control
T/C [12]: 87 % of control
T/C (dose: 200.0 mg/kg/injection, schedule: Q01DX001 (ip), vehicle: Klucel (hydroxypropylcellulose) (HPC)): 104 % of control
T/C [13]: 104 % of control
T/C (dose: 400.0 mg/kg/injection, schedule: Q01DX001 (ip), vehicle: Klucel (hydroxypropylcellulose) (HPC)): 109 % of control
T/C [14]: 100 % of control

Cc1ccc(C)c(OS(=O)(=O)c2ccc([N+](=O)[O-])cc2)c1
T/C (dose: 100.0 mg/kg/injection, schedule: Q01DX001 (ip), vehicle: saline sonified): 100 % of control
T/C (dose: 200.0 mg/kg/injection, schedule: Q01DX001 (ip), vehicle: saline sonified): 104 % of control
T/C (dose: 400.0 mg/kg/injection, schedule: Q01DX001 (ip), vehicle: saline sonified): 90 % of control

O=C(NNc1ccccc1)C12CC3CC(CC(C3)C1)C2
T/C [1]: 96 % of control
T/C [2]: 91 % of control

O=c1c2ccccc2c2c3c1cccc3c1cccc3c(=O)c4ccccc4c2c31
T/C [8]: 86 % of control
T/C [9]: 90 % of control
T/C [11]: 90 % of control

CN(C)c1ccc(Cc2ccc(N(C)C)cc2[N+](=O)[O-])cc1
T/C (dose: 100.0 mg/kg/injection, schedule: Q04DX003 (ip), vehicle: Klucel (hydroxypropylcellulose) (HPC)): 100 % of control
T/C (dose: 200.0 mg/kg/injection, schedule: Q04DX003 (ip), vehicle: Klucel (hydroxypropylcellulose) (HPC)): 95 % of control
T/C (dose: 400.0 mg/kg/injection, schedule: Q04DX003 (ip), vehicle: Klucel (hydroxypropylcellulose) (HPC)): 104 % of control

O=CN(O)CC(=O)O.[Zn]
T/C (dose: 4.12 mg/kg/injection, schedule: Q01DX009 (ip), vehicle: saline): 118 % of control and 122 % of control
T/C (dose: 6.25 mg/kg/injection, schedule: Q01DX009 (ip), vehicle: saline): 118 % of control and 122 % of control
T/C (dose: 8.7 mg/kg/injection, schedule: Q04DX003 (ip), vehicle: saline): 104 % of control
T/C (dose: 9.37 mg/kg/injection, schedule: Q01DX009 (ip), vehicle: saline): 118 % of control
T/C (dose: 13.0 mg/kg/injection, schedule: Q04DX003 (ip), vehicle: saline): 113 % of control
T/C (dose: 19.5 mg/kg/injection, schedule: Q04DX003 (ip), vehicle: saline): 113 % of control
T/C (dose: 30.0 mg/kg/injection, schedule: Q04DX003 (ip), vehicle: saline): 118 % of control

CC1(C)O[C@]2(C)CC[C@@H]1C[C@H]2O
T/C (dose: 50.0 mg/kg/injection, schedule: Q01DX005 (ip), vehicle: saline with Tween-80): 100 % of control
T/C (dose: 100.0 mg/kg/injection, schedule: Q01DX005 (ip), vehicle: saline with Tween-80): 98 % of control
T/C (dose: 200.0 mg/kg/injection, schedule: Q01DX005 (ip), vehicle: saline with Tween-80): 95 % of control

FC(F)(F)c1ccc2c(c1)N(CCCN(CCCl)CCCl)c1ccccc1S2
T/C (dose: 3.1 mg/kg/injection, schedule: Q04DX003 (ip), vehicle: saline with Tween-80): 112 % of control
T/C (dose: 6.25 mg/kg/injection, schedule: Q04DX003 (ip), vehicle: saline with Tween-80): 122 % of control
T/C [7]: 119 % of control

O=S(=O)(O)SCCNCCCCCC1CCCCC1
T/C (dose: 0.75 mg/kg/injection, schedule: Q01DX009 (ip), vehicle: saline): 100 % of control
T/C (dose: 1.5 mg/kg/injection, schedule: Q01DX009 (ip), vehicle: saline): 100 % of control
T/C (dose: 3.0 mg/kg/injection, schedule: Q01DX009 (ip), vehicle: Klucel (hydroxypropylcellulose) (HPC)): 100 % of control
T/C (dose: 3.0 mg/kg/injection, schedule: Q01DX009 (ip), vehicle: saline): 100 % of control
T/C (dose: 6.0 mg/kg/injection, schedule: Q01DX009 (ip), vehicle: Klucel (hydroxypropylcellulose) (HPC)): 115 % of control
T/C (dose: 6.0 mg/kg/injection, schedule: Q01DX009 (ip), vehicle: saline): 105 % of control

O=C(NC(=O)OCCCCCl)Nc1cccc(Cl)c1
T/C [1]: 100 % of control
T/C [2]: 98 % of control
T/C [3]: 88 % of control

CCOP(=O)(OCC)C(C)OC (stereo not given)
T/C [4]: 100 % of control and 105 % of control
T/C [5]: 115 % of control and 116 % of control
T/C [6]: 104 % of control and 120 % of control
T/C (dose: 400.0 mg/kg/injection, schedule: Q01DX009 (ip), vehicle: saline): 100 % of control

Cc1ccc(S(=O)(=O)NCC(C)C)cc1
T/C (dose: 50.0 mg/kg/injection, schedule: Q01DX009 (ip), vehicle: Klucel (hydroxypropylcellulose) (HPC)): 94 % of control
T/C [12]: 86 % of control
T/C [13]: 104 % of control
T/C [14]: 102 % of control

CC(C)Cc1c[nH]c(=O)[nH]c1=O
T/C [8]: 90 % of control
T/C [9]: 90 % of control
T/C [11]: 90 % of control

Cc1cc(NC(=O)Nc2ccc(C3=NCCN3)cc2)ccc1NC(=O)Nc1ccc(C2=NCCN2)cc1
T/C [2]: 122 % of control
T/C [10]: 159 % of control

CCOCCC(O)CC (stereo not given)
T/C (dose: 178.0 mg/kg/injection, schedule: Q04DX003 (ip), vehicle: saline): 100 % of control
T/C (dose: 266.0 mg/kg/injection, schedule: Q04DX003 (ip), vehicle: saline): 100 % of control
T/C (dose: 400.0 mg/kg/injection, schedule: Q04DX003 (ip), vehicle: saline): 100 % of control

O=C(/C=C/c1ccccc1Cl)NCC(O)CO (stereo not given)
T/C [1]: 100 % of control
T/C [2]: 100 % of control
T/C [3]: 95 % of control
T/C (dose: 400.0 mg/kg/injection, schedule: Q01DX009 (ip), vehicle: other): 91 % of control
T/C [10]: 90 % of control

C=C1C(=O)OC2/C=C(/C)C(OC(C)=O)CC(O)/C(C)=C\C(OC(=O)/C(C)=C\C)C12 (stereo not given)
T/C (dose: 2.5 mg/kg/injection, schedule: Q01DX009 (ip), vehicle: saline + alcohol): 100 % of control
T/C (dose: 5.0 mg/kg/injection, schedule: Q01DX009 (ip), vehicle: saline + alcohol): 118 % of control
T/C (dose: 10.0 mg/kg/injection, schedule: Q01DX009 (ip), vehicle: saline + alcohol): 109 % of control
T/C (dose: 20.0 mg/kg/injection, schedule: Q01DX009 (ip), vehicle: saline + alcohol): 109 % of control
T/C (dose: 27.0 mg/kg/injection, schedule: Q01DX010 (ip), vehicle: saline): 115 % of control
T/C (dose: 40.0 mg/kg/injection, schedule: Q01DX009 (ip), vehicle: saline + alcohol): 122 % of control
T/C (dose: 40.0 mg/kg/injection, schedule: Q01DX010 (ip), vehicle: saline): 110 % of control
T/C (dose: 80.0 mg/kg/injection, schedule: Q01DX009 (ip), vehicle: saline + alcohol): 86 % of control
